Assay results reported in patent publication US20170037446A1, “METHOD FOR THE MICROBIOLOGICAL DETERMINATION OF TRACES OF A[…] LOW VOLUME BIOLOGICAL SAMPLES” (UNIVERSIDAD DE SANTIAGO DE CHILE, priority 2013, published 2017).

Assay: Pharmacokinetic study of minocycline in CSF of rats, quantified by the microbiological method with 4PL curve fit
Assay type: in vivo
Settings: normal Sprague-Dawley rats, intra CSF injection of 1 mg/mL MC solution
Method: A curve representing the percentage of bacterial growth inhibition versus antibiotic concentration applied to each well was also obtained.. Subsequently, using a curve fit analysis called “Four Parameter Curve Logistic (4PL)”, the values of antibiotic concentrations in the biological sample were obtained.
Cerebrospinal fluid (CSF) collection: It was collected by transcutaneous cisternal magna puncture. Minocycline injections were performed by the same route.
Curve fitting: Four Parameter Logistic Curve (4PL) analysis was applied to minocycline antibiotic obtained from FIG. 1:
Minocycline (MC), an antibiotic belonging to the family of tetracyclines, was used to carry out pharmacokinetic studies of CSF in Sprague-Dawley rats. Briefly, normal rats were injected via intra CSF an MC solution of 1 mg/mL, for subsequent sampling of CSF at time zero, 1, 10 and 18 hours. […] At 18 hours it is still possible to detect a concentration of 69 ng/mL (FIG. 4).

CN(C)c1ccc(O)c2c1C[C@H]1C[C@H]3[C@H](N(C)C)C(O)=C(C(N)=O)C(=O)[C@@]3(O)C(O)=C1C2=O [Minocycline]
detection of MC in CSF (CSF sampled at time zero, 1, 10 and 18 hours): detected at all times | concentration at 18 h (rat, cerebrospinal fluid (CSF), other: intra CSF (transcutaneous cisternal magna puncture), CSF sampled at 18 hours (FIG. 4)): 69 ng/mL
